Laboratory results published in publication PMC11106742, “Computational Design of Cyclic Peptide Inhibitors of a Bacterial Membrane Lipoprotein Peptidase” (ACS Chemical Biology, 2024).
Converted amounts (≈) assume the structure as drawn. Read-outs that look alike come from different tables or passages of the source. Numbered stars: 1 amine (or outer) side, 2 acyl side, 3 side chain; on linkers, the order of the positions; unused ones are H or OH. Bridge positions count the residues as written; N and C are the ends. Square brackets hold non-standard residues; d marks the D form. Peptide text beside a SMILES is read from it. * marks the point of attachment. X1 = CCCCCCCCN([C@@H](C)C(=O)[*:2])[*:1]; X4 = CCCCCCCCN([C@H](C)C(=O)[*:2])[*:1]; X2 = CCCCC[C@@H](C)N(CC(=O)[*:2])[*:1]; Gly(N-dodecyl) = CCCCCCCCCCCCNCC(=O)O; X6 = CCCCC[C@H](C)N(CC(=O)[*:2])[*:1]; X7 = CCOCCOCCOCCN(CC(=O)[*:2])[*:1]; aIle = CC[C@@H](C)[C@H](N)C(=O)O; N(octyl)Gly = CCCCCCCCNCC(=O)O; aThr = C[C@H](O)[C@H](N)C(=O)O; NMeL = CN[C@@H](CC(C)C)C(=O)O; Heptanoyl = CCCCCCC(=O)*; Pentanoyl = CCCCC(=O)*; Propionyl = CCC(=O)*; Butyryl = CCCC(=O)*; βAla = NCCC(=O)O

What was measured:
PaLspA [1] = target: T1, PaLspA (Pseudomonas aeruginosa, UniProt Q9HVM5); test: biochemical
T1 construct: made in house
T1 sequence (Q9HVM5 1-169): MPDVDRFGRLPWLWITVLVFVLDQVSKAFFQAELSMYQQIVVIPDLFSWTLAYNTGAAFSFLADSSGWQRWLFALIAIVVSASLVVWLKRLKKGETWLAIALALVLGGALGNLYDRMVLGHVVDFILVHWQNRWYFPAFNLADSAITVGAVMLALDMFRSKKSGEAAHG
Procedure: These analogues were tested for activity against PaLspA using an in vitro fluorescence resonance energy transfer (FRET) activity assay.[21] LspA inhibition was detected by a change in fluorescence upon cleavage of a FRET peptide substrate containing an N-terminal quencher moiety and a C-terminal fluorophore.
(A) Structures of G2a and G2d. (B) Results of the FRET dose–response assays. PaLspA concentration was 40 nM, FRET substrate concentration was 50 μM, and the concentration of inhibitors globomycin, G2a, and G2d ranged from 0–3,000 nM. (C) SDS-PAGE gels and quantitation of the PaLspA gel-shift dose–response assays. ppICP concentration was 12 μM, DOPG concentration was 600 μM, and Lgt concentration was 1.2 μM. The Lgt-catalyzed reaction was allowed to proceed for 60 min at 37 °C, after which inhibitors (0–1000 nM) were added. The PaLspA reaction was initiated by the addition of 100 nM enzyme. The LspA reaction was allowed to proceed for 30 min at 37 °C before being quenched with SDS-PAGE loading buffer (62.5 mM Tris/HCl pH 6.8, 2.5% (w/v) SDS, 0.002% (w/v) bromophenol blue, 0.5 M β-mercaptoethanol, 10% (v/v) glycerol). Quantitation of the gel-shift assays was performed using Image Lab, and data were plotted using GraphPad Prism.
Materials: All reagents were obtained from commercial sources and used without additional purification. All aqueous solutions were prepared using ultrapure laboratory grade water (deionized, filtered, and sterilized) obtained from an in-house ELGA water purification system. […]
Expression and purification of PaLspA, Lgt, EcLspA and ppICP: PaLspA, Lgt and pre-proICP (ppICP) were expressed and purified using previously published protocols (Vogely et al, 2016).[1] EcLspA was expressed and purified as described for PaLspA, with the following modification. The lysis buffer was 50 mM Hepes pH 7.5, 150 mM NaCl, 1 mM TCEP, 10 %(v/v) glycerol. Isolated membranes, containing EcLspA, were solubilized with 1 %(v/v) FC12 for 2 h at […]

A. baumannii AB17978 = test: microbe, parasite or virus in culture; format: cell-based, Acinetobacter baumannii
Procedure: (§1) MIC values were determined in cation-adjusted Mueller-Hinton broth using the broth microdilution method according to CLSI guidelines. Plates were incubated for 16 to 24 h at 37 °C.
(§2) Six biological replicates were performed across three different 2-fold dilution series, starting at concentration of 100 µg/ml, 80 µg/ml or 64 µg/ml. The lowest concentration of antimicrobial inhibiting growth was taken as the MIC. This was established by visual inspection of the medium after the incubation period with a lack of turbidity of the growth medium indicating no growth.[3] […]

A. baumannii AB5075 = test: microbe, parasite or virus in culture; format: cell-based, Acinetobacter baumannii
Procedure: as §1, §2

E. coli ATCC25922 = test: microbe, parasite or virus in culture; format: cell-based, Escherichia coli
Procedure: as §1, §2

P. aeruginosa 950 = test: microbe, parasite or virus in culture; format: cell-based, Pseudomonas aeruginosa
Procedure: as §1, §2

PaLspA [2] = target: T1, PaLspA; test: Enzyme inhibition assay of rationally designed analogues with PaLspA; format: biochemical; settings: peptide incubated with PaLspA
Procedure: Additionally, C3 – C5 (peptides S5 – S7) and C7-Gbm(NLys) (peptide S9) amide analogues were submitted for enzyme inhibition assays to determine if these cyclic amide isosteres could still inhibit the target enzyme, LspA. Each peptide was incubated with PaLspA and the observed reduction in enzyme activity reported. […]
found for peptides S5 and S9 (C3 and C7-Gbm(NLys). […]
Four linear globomycin analogues were synthesized to determine the necessity of the cyclic core.
The pentapeptide core of NMeLeu-Ile-Ser-Thr-Gly-OH was synthesized as both the natural allo-version and the cheaper non-allo version in which native residues allo-L-isoleucine and allo-L-threonine were replaced by their cheaper non-allo derivatives. Each linear pentapeptide was synthesized in both its acylated, octyl-derivative and non-acylated form and submitted for analysis of its PaLspA inhibitory activity. No PaLspA inhibition was observed, confirming the importance of globomycin’s cyclic core for antimicrobial activity.

E. coli = format: cell-based
From the text: Initially, a library of six lipid amide analogues was synthesized via cyclization between the side-chain epsilon -NH2 of an N-terminal L-lysine residue and the C-terminus of an L-serine residue.
Each analogue was acylated with a simple linear lipid, ranging from C3 to C8 in length (Figure S1). To further probe the potential of the amide isostere, five additional analogues were synthesized in which the D- or L-stereoisomer of cationic amino acids diaminobutyric acid (Dab), ornithine (Orn), or Lys were used as the N-terminal cyclization partner. Each analogue was acylated with an octanoyl tail and the subsequent effects of ring size and/or stereochemistry, as well as lipid length, determined by assessing antimicrobial activity against E. coli. Peptides were also screened against S. aureus.
Unfortunately, each analogue was unable to […]

For `CCCCC[C@H](C)N1CC(=O)N(C)[C@@H](CC(C)C)C(=O)N[C@@H]([C@H](C)CC)C(=O)N[C@@H](CO)C(=O)N[C@@H]([C@H](C)O)C(=O)NCCC1=O` [G1a] (cyclo([NMeL][aIle]S[aThr][βAla][X6])), the IC50 (PaLspA [1]) was 2940 ± 850 nM.

`CCCCC[C@@H](C)N1CC(=O)N(C)[C@@H](CC(C)C)C(=O)N[C@@H]([C@H](C)CC)C(=O)N[C@@H](CO)C(=O)N[C@@H]([C@H](C)O)C(=O)NCCC1=O` [G1b] (cyclo([NMeL][aIle]S[aThr][βAla][X2])) gave an IC50 (PaLspA [1]) of 3680 ± 420 nM, an MIC (A. baumannii AB17978; AB17978) of 16 µg/mL (≈ 24.4 µM) and an MIC (A. baumannii AB5075; AB5075) of 25 µg/mL (≈ 38.2 µM). The MIC (E. coli ATCC25922; ATCC25922) was 32 µg/mL (≈ 48.9 µM) and the MIC (P. aeruginosa 950; 950) was 32 µg/mL (≈ 48.9 µM).

Work on `CCCCCCCCN1C(=O)CCNC(=O)[C@H]([C@H](C)O)NC(=O)[C@H](CO)NC(=O)[C@H]([C@H](C)CC)NC(=O)[C@H](CC(C)C)N(C)C(=O)[C@@H]1C` [G2a] (cyclo([NMeL][aIle]S[aThr][βAla][X1])) yielded an IC50 (PaLspA [1]) of 304 ± 62 nM, an MIC (A. baumannii AB17978; AB17978) of 12.5 µg/mL (≈ 18.3 µM) and an MIC (A. baumannii AB5075; AB5075) of 16 µg/mL (≈ 23.4 µM). For the same compound, the MIC (E. coli ATCC25922; ATCC25922) was 32 µg/mL (≈ 46.9 µM) and the MIC (P. aeruginosa 950; 950) was 32 µg/mL (≈ 46.9 µM).

Compound `CCCCCCCCN1C(=O)CCNC(=O)[C@H]([C@H](C)O)NC(=O)[C@H](CO)NC(=O)[C@H]([C@H](C)CC)NC(=O)[C@H](CC(C)C)N(C)C(=O)[C@H]1C` [G2b] (cyclo([NMeL][aIle]S[aThr][βAla][X4])) has an IC50 (PaLspA [1]) of 430 ± 50 nM.

For `CCCCCCCCN1CC(=O)N(C)[C@@H](CC(C)C)C(=O)N[C@@H]([C@H](C)CC)C(=O)N[C@@H](CO)C(=O)N[C@@H]([C@H](C)O)C(=O)NCCC1=O` [G2c] (cyclo([NMeL][aIle]S[aThr][βAla][N(octyl)Gly])), the IC50 (PaLspA [1]) was 920 ± 70 nM.

With `CCCCCCCCCCCCN1CC(=O)N(C)[C@@H](CC(C)C)C(=O)N[C@@H]([C@H](C)CC)C(=O)N[C@@H](CO)C(=O)N[C@@H]([C@H](C)O)C(=O)NCCC1=O` [G2d] (cyclo([NMeL][aIle]S[aThr][βAla][Gly(N-dodecyl)])) the IC50 (PaLspA [1]) was 157 ± 25 nM, the MIC (A. baumannii AB17978; AB17978) was 16 µg/mL (≈ 22.1 µM) and the MIC (A. baumannii AB5075; AB5075) was 16 µg/mL (≈ 22.1 µM). For the same compound, the MIC (E. coli ATCC25922; ATCC25922) was 32 µg/mL (≈ 44.1 µM) and the MIC (P. aeruginosa 950; 950) was 32 µg/mL (≈ 44.1 µM).

In the case of `CCOCCOCCOCCN1CC(=O)N(C)[C@@H](CC(C)C)C(=O)N[C@@H]([C@H](C)CC)C(=O)N[C@@H](CO)C(=O)N[C@@H]([C@H](C)O)C(=O)NCCC1=O` [G2e] (cyclo([NMeL][aIle]S[aThr][βAla][X7])), the IC50 (PaLspA [1]) is reported as 6160 ± 840 nM.

In the case of `CCC(=O)N[C@H]1CCCCNC(=O)[C@H](CO)NC(=O)[C@H](CO)NC(=O)[C@H]([C@H](C)CC)NC(=O)[C@H](CC(C)C)N(C)C1=O` [S5, C3-Globomycin(N-Lys)] (Propionyl-K[NMeL][aIle]SS; lactam 1-C), the “reduction in PaLspA enzyme activity (in words)” value (shortened to “reduction”) (PaLspA [2]) is reported as “moderate decrease in enzyme activity” and the MIC (E. coli) is reported as greater than 200 µg/mL.

`CCCC(=O)N[C@H]1CCCCNC(=O)[C@H](CO)NC(=O)[C@H](CO)NC(=O)[C@H]([C@H](C)CC)NC(=O)[C@H](CC(C)C)N(C)C1=O` [S6, C4-Globomycin(N-Lys)] (Butyryl-K[NMeL][aIle]SS; lactam 1-C) was tested, and the “reduction” value (PaLspA [2]) was “no reduction in activity” and the MIC (E. coli) was greater than 200 µg/mL.

With `CCCCC(=O)N[C@H]1CCCCNC(=O)[C@H](CO)NC(=O)[C@H](CO)NC(=O)[C@H]([C@H](C)CC)NC(=O)[C@H](CC(C)C)N(C)C1=O` [S7, C5-Globomycin(N-Lys)] (Pentanoyl-K[NMeL][aIle]SS; lactam 1-C) the “reduction” value (PaLspA [2]) was “no reduction in activity” and the MIC (E. coli) was greater than 200 µg/mL.

With `CCCCCCC(=O)N[C@H]1CCCCNC(=O)[C@H](CO)NC(=O)[C@H](CO)NC(=O)[C@H]([C@H](C)CC)NC(=O)[C@H](CC(C)C)N(C)C1=O` [S9, C7-Globomycin(N-Lys)] (Heptanoyl-K[NMeL][aIle]SS; lactam 1-C) the “reduction” value (PaLspA [2]) was “moderate decrease in enzyme activity” and the MIC (E. coli) was 100 µg/mL (≈ 153 µM).

Work on `CCCCCC[C@H]1OC(=O)CNC(=O)[C@H]([C@H](C)O)NC(=O)[C@H](CO)NC(=O)[C@H]([C@H](C)CC)NC(=O)[C@H](CC(C)C)N(C)C(=O)[C@@H]1C` [globomycin, reference compound] yielded an IC50 (PaLspA [1]) of 40 nM, an MIC (A. baumannii AB17978; Acinetobacter baumannii, A. baumannii AB17978, cation-adjusted Mueller-Hinton broth, 16 to 24 h, 37 °C, read-out: MIC) of 16 µg/mL (≈ 24.4 µM) and an MIC (A. baumannii AB5075; Acinetobacter baumannii, A. baumannii AB5075, cation-adjusted Mueller-Hinton broth, 16 to 24 h, 37 °C, read-out: MIC) of 32 µg/mL (≈ 48.8 µM). The MIC (E. coli ATCC25922; Escherichia coli, E. coli ATCC25922, cation-adjusted Mueller-Hinton broth, 16 to 24 h, 37 °C, read-out: MIC) was 10 µg/mL (≈ 15.2 µM) and the MIC (P. aeruginosa 950; Pseudomonas aeruginosa, P. aeruginosa 950, cation-adjusted Mueller-Hinton broth, 16 to 24 h, 37 °C, read-out: MIC) was 16 µg/mL (≈ 24.4 µM).
